Measured values published in patent US7122570B2, “Tetrahydrocarbazol derivatives as ligands for G-protein-coupled receptors (GPCR)” (Zentaris AG, priority 2001, dated 2006).

How the values were obtained:
hGnRH-Receptor = target: T1, hGnRH-Receptor (Homo sapiens, UniProt P30968); assay: GnRH receptor assay: competition binding with 125I-labeled buserelin on cell membranes; settings: competition with 125I-buserelin
T1 construct: expressed in transfected cells; host or cells: CHO-3 cells (Schmid et al., J. Biol. Chem. 275 (2000), 9193-9200), membrane preparation
T1 sequence (P30968 1-328): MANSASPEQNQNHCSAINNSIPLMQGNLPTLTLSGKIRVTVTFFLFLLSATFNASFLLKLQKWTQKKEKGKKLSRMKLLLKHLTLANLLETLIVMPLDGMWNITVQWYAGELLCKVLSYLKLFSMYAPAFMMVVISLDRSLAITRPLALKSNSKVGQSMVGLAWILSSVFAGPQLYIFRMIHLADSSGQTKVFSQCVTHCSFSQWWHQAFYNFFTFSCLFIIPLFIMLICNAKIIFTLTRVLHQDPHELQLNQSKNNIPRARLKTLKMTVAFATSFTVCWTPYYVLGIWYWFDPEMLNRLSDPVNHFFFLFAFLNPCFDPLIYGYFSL
Procedure: Buserelin is ordered from Welding (Frankfurt/Main, Germany). The compound is labeled with ^125I by use of the chloramine T-method and Na^125I (4000 Ci/mmol; Amersham-Buchler, Brunswick, Germany). The labeled substance is purified by reverse phase HPLC on a Spherisorb ODS II column (250×4 mm, particle size 3 μm) by elution with 50% acetonitrile/0.15% trifluoroacetic acid at a flow rate of 0.5 ml/minute. The specific activity is 2000 Ci/mmol.
Alpha T3-1 cells (Bilezikjian et al., Mol. Endocrinol 5 (1991), 347–355) are cultivated in DMEM medium (Gibco-BRL, Eggenstein-Leopoldshafen, Germany) with penicillin (100 I.U./ml), streptomycin (0.1 mg/ml) and glutamine (0.01 mol/l) and 10% fetal calf serum (FCS; PAA Laboratories, Coelbe, Germany) on plastic tissue culture plates (Nunc, 245×245×20 mm). CHO-3 cells (Schmid et al., J. Biol. Chem. 275 (2000), 9193–9200) are cultivated under identical conditions, apart from the fact that Ham's F12 medium (Gibco-BRL) is used.
Ten confluent cell culture plates are flushed twice with 50 ml of phosphate-buffered salt solution (PBS). The cells are harvested by scraping them off with a rubber scraper in 5 ml of PBS and sedimented by centrifuging in a laboratory centrifuge (Heraeus) at 800 rpm for 10 minutes. The cell pellet is resuspended in 5 ml of 0.25 mol/l of saccharose/0.01 mol/l of triethanolamine, pH 7.4. The cells are lysed by three cycles of freezing in dry ice/ethanol bath and thawing at room temperature. The lysate is centrifuged at 900 rpm for 10 minutes, and the sediment is discarded. The supernatant is centrifuged at 18,000 rpm in a Sorvall SS34 rotor for 30 minutes. The pellet (cell membranes) is suspended by Potters in 5 ml of assay buffer (0.25 mol/l of saccharose, 0.01 mol/l of triethanolamine, pH 7.5, 1 mg/ml of ovalbumin) and stored in 200 μl of aliquots at −20° C. The determination of protein is carried out according to the Bradford method (Anal. Biochem. 72 (1976), 248–254).
Binding studies for competition curves are performed as triplicates. A test sample contains 60 μl of cell membrane suspension (10 μg of protein for αT3-1 cells or 40 μg of protein for CHO3 cells), 20 μl of ^125I-labeled buserelin (100,000 Ipm per sample for competition curves and between 1,500 and 200,000 Ipm for saturation experiments) and 20 μl of test buffer or test compound solution. The test compounds are dissolved in distilled water or 50% ethanol. Serial dilutions (5×10^−6 mol/l to […]) are produced in test buffer. The unspecific binding is determined in the presence of excess unlabeled buserelin (10^−6 mol/1). The test samples are incubated for 30 minutes at room temperature. Bonded and free ligands are separated by filtration (Whatman GF/C-filter, 2.5 cm diameter) with use of an Amicon 10x collecting device and washed twice with 5 ml of 0.02 mol/l of Tris/HCl, pH 7.4. The filters are moistened with 0.3% polyethylenimine (Serva; Heidelberg, Germany) for 30 minutes to reduce the unspecific binding. The radioactivity that was held up by the filter is determined in a 5-channel gamma-counter (Wallac-LKB 1470 Wizard).
In the table below, the IC50 values that are obtained for the preferred compounds, as defined above, are indicated.

GnRH receptor = target: T2, GnRH receptor (Homo sapiens, UniProt P30968); assay: Ca2+ release, human; type: cell-based; settings: read-out: Ca^2+ Release Human IC50
T2 sequence (P30968 1-328): T1 sequence (P30968 1-328)

Question: `CC(C)C(NC(=O)C1(NC(=O)C(Cc2ccccc2)c2ccccc2)CCc2[nH]c3ccccc3c2C1)C(=O)NC(CC(N)=O)C(N)=O` [Compound 18, N-[[(3R)-2,3,4,9-Tetrahydro-3-[(1-oxo-2,3-diphenyl-propyl)amino]-1H-carbaol-3-yl]-carbonyl]-L-valyl-L-aspartamide] was tested. Which IC50 (hGnRH-Receptor) did it give?
Answer: Its IC50 is 0.9 µM.

Question: And the IC50 (GnRH receptor)?
Answer: The IC50 was 5 µM.

Question: `CC[C@H](C)[C@H](NC(=O)CCc1ccccc1)C(=O)N[C@]1(C(=O)N[C@H](C(=O)N[C@@H](CC(N)=O)C(N)=O)C(C)C)CCc2[nH]c3ccccc3c2C1` [Compound 22, N-[[(3R)-2,3,4,9-Tetrahydro-3-[[(2S,3S)-3-methyl-1-oxo-2-[(1-oxo-3-phenylpropyl)amino]-pentyl]amino]-1H-carbazol-3-yl]carbonyl]-L-valyl-L-aspartamide] was tested. Which IC50 (hGnRH-Receptor) did it give?
Answer: The IC50 was 2 µM.

Question: What about the IC50 (GnRH receptor) of the same molecule?
Answer: The IC50 was 1 µM.

Question: For `CC[C@H](C)[C@H](NC(=O)OCc1ccccc1)C(=O)N[C@]1(C(=O)N[C@H](C(=O)Nc2ccc(C(N)=O)cc2)C(C)C)CCc2[nH]c3ccccc3c2C1` [Compound 45, Phenylmethyl [(1S,2S)-1-[[[(3R)-3-[[[(1S)-1-[[[4-(aminocarbonyl)phenyl]amino]carbonyl]-2-methylpropyl]amino]carbonyl]-2,3,4,9-tetrahydro-1H-carbazol-3-yl]amino]carbonyl]-2-methylbutyl]carbamate], which IC50 (hGnRH-Receptor) is on record?
Answer: The IC50 was 0.3 µM.

Question: And the IC50 (GnRH receptor)?
Answer: Its IC50 is 1 µM.

Question: What does the source list for `CC[C@H](C)[C@H](NC(=O)OCc1ccccc1)C(=O)N[C@]1(C(=O)N[C@H](C(N)=O)C(C)C)CCc2[nH]c3ccccc3c2C1` [Compound 58, Phenylmethyl [(1S,2S)-1-[[[(3R)-3-[[[(1S)-1-(aminocarbonyl)-2-methylpropyl]amino]-carbonyl]-2,3,4,9-tetrahydro-1H-carbazol-3-yl]-amino]carbonyl]-2-methylbutyl]carbamate]?
Answer: IC50 (hGnRH-Receptor): 0.3 µM; IC50 (GnRH receptor): 0.37 µM

Question: Which results are given for `CC[C@H](C)[C@H](NC(=O)[C@@]1(NC(=O)[C@@H](NC(=O)OCc2ccccc2)[C@@H](C)CC)CCc2[nH]c3ccccc3c2C1)C(N)=O` [Compound 64, Phenylmethyl [(1S,2S)-1-[[[(3R)-3-[[[(1S,2S)-1-(aminocarbonyl)-2-methylbutyl]amino]-carbonyl]-2,3,4,9-tetrahydro-1H-carbazol-3-yl]-amino]carbonyl]-2-methylbutyl]carbamate]?
Answer: IC50 (hGnRH-Receptor): 1.7 µM; IC50 (GnRH receptor): 1.5 µM

Question: Which results are given for `CC(C)[C@H](NC(=O)[C@@]1(NC(=O)Cc2ccc(F)cc2)CCc2[nH]c3ccccc3c2C1)C(N)=O` [Compound 91, (3R)-N-[(1S)-1-(Aminocarbonyl)-2-methyl-propyl]-3-[[(4-fluorophenyl)acetyl]amino]-2,3,4,9-tetrahydro-1H-carbazole-3-carboxamide]?
Answer: IC50 (hGnRH-Receptor): 2.4 µM; IC50 (GnRH receptor): 2 µM

Question: With `CC(C)[C@H](NC(=O)[C@@]1(NC(=O)Cc2cccc(Br)c2)CCc2[nH]c3ccccc3c2C1)C(N)=O` [Compound 96, (3R)-N-[(1S)-1-(Aminocarbonyl)-2-methyl-propyl]-3-[[(3-bromophenyl)acetyl]-amino]-2,3,4,9-tetrahydro-1H-carbazole-3-carboxamide] as the molecule, how does the IC50 (hGnRH-Receptor) read?
Answer: Its IC50 is 4 µM.

Question: What about the IC50 (GnRH receptor) of the same molecule?
Answer: The IC50 was 3 µM.

Question: How did the IC50 (hGnRH-Receptor) turn out when `CC[C@H](C)[C@H](NC(=O)OCc1ccccc1)C(=O)N[C@]1(C(=O)N[C@H](C(N)=O)C(C)C)CCc2[nH]c3c(OC)cccc3c2C1` [Compound 147a, Phenylmethyl [(1S,2S)-1-[[[(3R)-3-[[[(1S)-1-(aminocarbonyl)-2-methypropyl]amino]-carbonyl]-2,3,4,9-tetrahydro-8-methoxy-1H-carbazol-3-yl]amino]carbonyl]-2-methylbutyl]carbamate] was run?
Answer: Its IC50 is 0.076 µM.

Question: What about the IC50 (GnRH receptor) of the same molecule?
Answer: Its IC50 is 0.25 µM.

Question: `CC[C@H](C)[C@H](NC(=O)OCc1ccccc1)C(=O)N[C@]1(C(=O)N[C@H](C(N)=O)C(C)C)CCc2[nH]c3ccc(Cl)cc3c2C1` [Compound 148a, Phenylmethyl [(1S,2S)-1-[[[(3R)-3-[[[(1S)-1-(aminocarbonyl)-2-methylpropyl]amino]-carbonyl]-6-chloro-2,3,4,9-tetrahydro-1H-carbazol-3-yl]amino]carbonyl]-2-methylbutyl]carbamate] was tested. Which IC50 (hGnRH-Receptor) did it give?
Answer: The IC50 was 0.08 µM.

Question: What about the IC50 (GnRH receptor) of the same molecule?
Answer: Its IC50 is 0.14 µM.

Question: `CC[C@H](C)[C@H](NC(=O)OCc1ccccc1)C(=O)N[C@]1(C(=O)N[C@H](C(N)=O)C(C)C)CCc2[nH]c3c(C)cccc3c2C1` [Compound 150a, Phenylmethyl [(1S,2S)-1-[[[(3R)-3-[[[(1S)-1-(aminocarbonyl)-2-methylpropyl]amino]-carbonyl]-2,3,4,9-tetrahydro-8-methyl-1H-carbazol-3-yl]amino]carbonyl]-2-methylbutyl]carbamate] was tested. Which IC50 (hGnRH-Receptor) did it give?
Answer: The IC50 was 0.11 µM.

Question: And the IC50 (GnRH receptor)?
Answer: The IC50 was 0.28 µM.

Question: For `CC(C)C(NC(=O)C1(NC(=O)Cc2ccc3ccccc3c2)CCc2[nH]c3ccccc3c2C1)C(N)=O` [Compound 161b, (3S)-N-[(1S)-1-(Aminocarbonyl)-2-methyl-propyl]-2,3,4,9-tetrahydro-3-[(2-naphthalenyl-acetyl)amino]-1H-carbazole-3-carboxamide], which IC50 (hGnRH-Receptor) is on record?
Answer: Its IC50 is 3.7 µM.

Question: What about the IC50 (GnRH receptor) of the same molecule?
Answer: Its IC50 is 3.6 µM.

Question: For `CC(C)[C@H](NC(=O)[C@]1(NC(=O)Cc2c[nH]c3ccccc23)CCc2[nH]c3ccccc3c2C1)C(N)=O` [Compound 164b, (3S)-N-[(1S)-1-(Aminocarbonyl)-2-methyl-propyl]-2,3,4,9-tetrahydro-3-[(1H-indol-3-yl-acetyl)amino]-1H-carbazole-3-carboxamide], which IC50 (hGnRH-Receptor) is on record?
Answer: The IC50 was 6 µM.

Question: And the IC50 (GnRH receptor)?
Answer: The IC50 was 6.5 µM.

Question: For `CC(C)[C@H](NC(=O)[C@@]1(NC(=O)Cc2ccc(Cl)cc2)CCc2[nH]c3ccccc3c2C1)C(N)=O` [Compound 167a, (3R)-N-[(1S)-1-(Aminocarbonyl)-2-methyl-propyl]-3-[[(4-chlorophenyl)acetyl]amino]-2,3,4,9-tetrahydro-1H-carbazole-3-carboxamide], which IC50 (hGnRH-Receptor) is on record?
Answer: The IC50 was 1 µM.

Question: What about the IC50 (GnRH receptor) of the same molecule?
Answer: The IC50 was 2.6 µM.

Question: For `COc1ccc(CC(=O)NC2(C(=O)N[C@H](C(N)=O)C(C)C)CCc3[nH]c4ccccc4c3C2)cc1` (stereo partly drawn) [Compound 175, N-[(1S)-1-(Aminocarbonyl)-2-methylpropyl]-2,3,4,9-tetrahydro-3-[[(4-methoxyphenyl)-acetyl]amino]-1H-carbazole-3-carboxamide], which IC50 (hGnRH-Receptor) is on record?
Answer: Its IC50 is 8 µM.

Question: What about the IC50 (GnRH receptor) of the same molecule?
Answer: Its IC50 is 1.8 µM.

Question: What does the source list for `CC[C@H](C)[C@H](NC(=O)OCc1ccccc1)C(=O)N[C@]1(C(=O)N2CCC[C@H]2C(N)=O)CCc2[nH]c3ccccc3c2C1` [Compound 181a, Phenylmethyl [(1S,2S)-1-[[[(3R)-3-[[(2S)-2-(aminocarbonyl)-1-pyrrolidinyl]carbonyl]-2,3,4,9-tetrahydro-1H-carbazol-3-yl]amino]-carbonyl]-2-methylbutyl]carbamate]?
Answer: IC50 (hGnRH-Receptor): 0.7 µM; IC50 (GnRH receptor): 3 µM

Question: What does the source list for `CC[C@H](C)[C@H](NC(=O)OCc1ccccc1)C(=O)N[C@]1(C(=O)N[C@H](C(N)=O)C(C)C)CCc2[nH]c3c(Cl)cc(Cl)cc3c2C1` [Compound 184a, Phenylmethyl [(1S,2S)-1-[[[(3R)-3-[[[(1S)-1-(aminocarbonyl)-2-methylpropyl]amino]-carbonyl]-6,8-dichloro-2,3,4,9-tetrahydro-1H-carbazol-3-yl]amino]carbonyl]-2-methylbutyl]-carbamate]?
Answer: IC50 (hGnRH-Receptor): 0.015 µM; IC50 (GnRH receptor): 0.045 µM
